Laboratory results from patent publication US8802597B2, “Herbicidal pyrimidines” (E I du Pont de Nemours and Company, priority 2003, dated 2014).

Legend:
Test in all cases: Test C pre/postemergence
Type in all cases: in vivo
[1] = tested on: woolly cupgrass (Eriochloa villosa); details: for Cupgrass, Woolly plant response rating: scale 0 to 100 (0 no effect, 100 complete control)
Outline: (§1)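 Pre: seeds planted, sprayed same day. Post: 1- to 4-leaf plants (2–18 cm). Formulation: non-phytotoxic solvent + surfactant. Greenhouse 12–14 d; visual % control vs untreated, 0–100.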

[2] = tested on: Surinam grass (Brachiaria decumbens); details: for Surinam Grass plant response rating: scale 0 to 100 (0 no effect, 100 complete control)
Outline: as §1

[3] = tested on: common ragweed (Ambrosia elatior); details: for Ragweed plant response rating: scale 0 to 100 (0 no effect, 100 complete control)
Outline: as §1

[4] = tested on: common (oilseed) sunflower (Helianthus annuus); details: Preemergence
Outline: as §1

[5] = tested on: bermudagrass (Cynodon dactylon); details: for Bermudagrass plant response rating: scale 0 to 100 (0 no effect, 100 complete control)
Outline: as §1

[6] = tested on: cocklebur (Xanthium strumarium); details: for Cocklebur plant response rating: scale 0 to 100 (0 no effect, 100 complete control)
Outline: as §1

[7] = tested on: eastern black nightshade (Solanum ptycanthum); details: Preemergence
Outline: as §1

[8] = tested on: johnsongrass (Sorghum halepense)
Outline: as §1

[9] = tested on: pigweed (Amaranthus retroflexus); details: for Pigweed plant response rating: scale 0 to 100 (0 no effect, 100 complete control)
Outline: as §1

kochia (Kochia scoparia) = details: for Kochia plant response rating: scale 0 to 100 (0 no effect, 100 complete control)
Outline: as §1

[10] = tested on: morningglory (Ipomoea coccinea); details: for Morningglory plant response rating: scale 0 to 100 (0 no effect, 100 complete control)
Outline: as §1

corn (Zea mays) = details: for Corn plant response rating: scale 0 to 100 (0 no effect, 100 complete control)
Outline: as §1

[11] = Preemergence, 31 g ai/ha, scale 0 to 100, 0 no effect, 100 complete control
[12] = Preemergence, 62 g ai/ha, scale 0 to 100, 0 no effect, 100 complete control
[13] = Preemergence, 125 g ai/ha, scale 0 to 100
[14] = Preemergence, 250 g ai/ha, scale 0 to 100
[15] = 62 g ai/ha, scale 0 to 100, 0 no effect, 100 complete control
[16] = Postemergence, 250 g ai/ha, scale 0 to 100
[17] = Postemergence, 500 g ai/ha, scale 0 to 100
[18] = Preemergence, 500 g ai/ha, scale 0 to 100

## CCOC(=O)Cc1nc(C2CC2)nc(N)c1Br [Compound 12]
[1]; [11]
  Plant response rating, Cupgrass, Woolly: 0
[1]; [12]
  Plant response rating, Cupgrass, Woolly: 0
[1]; [13]
  Plant response rating, Cupgrass, Woolly: 10
[1]; [14]
  Plant response rating, Cupgrass, Woolly: 100
[2]; [11]
  Plant response rating, Surinam Grass: 0
[2]; [13]
  Plant response rating, Surinam Grass: 0
[2]; [14]
  Plant response rating, Surinam Grass: 0
[3]; [12]
  Plant response rating, Ragweed: 10
[3]; [13]
  Plant response rating, Ragweed: 20
[3]; [14]
  Plant response rating, Ragweed: 85
[4]; 31 g ai/ha, scale 0 to 100, 0 no effect, 100 complete control
  Plant response rating, Sunflower: 0
[4]; [15]
  Plant response rating, Sunflower: 0
[4]; 125 g ai/ha, scale 0 to 100
  Plant response rating, Sunflower: 0
[4]; 250 g ai/ha, scale 0 to 100
  Plant response rating, Sunflower: 85
[5]; [11]
  Plant response rating, Bermudagrass: 0
[5]; [12]
  Plant response rating, Bermudagrass: 0
[5]; [13]
  Plant response rating, Bermudagrass: 0
[5]; [14]
  Plant response rating, Bermudagrass: 20
[6]; [11]
  Plant response rating, Cocklebur: 50
[6]; [12]
  Plant response rating, Cocklebur: 50
[6]; [13]
  Plant response rating, Cocklebur: 85
[6]; [14]
  Plant response rating, Cocklebur: 90
[7]; [15]
  Plant response rating, Nightshade: 50
[7]; 125 g ai/ha, scale 0 to 100
  Plant response rating, Nightshade: 60
[7]; 250 g ai/ha, scale 0 to 100
  Plant response rating, Nightshade: 80
[8]; [11]
  Plant response rating, Johnsongrass: 0
[8]; [12]
  Plant response rating, Johnsongrass: 0
[8]; [13]
  Plant response rating, Johnsongrass: 5
[8]; [14]
  Plant response rating, Johnsongrass: 5
[9]; [11]
  Plant response rating, Pigweed: 10
[9]; [12]
  Plant response rating, Pigweed: 50
[9]; [13]
  Plant response rating, Pigweed: 50
[9]; [14]
  Plant response rating, Pigweed: 85
Kochia (Kochia scoparia); [11]
  Plant response rating, Kochia: 0
Kochia (Kochia scoparia); [12]
  Plant response rating, Kochia: 50
Kochia (Kochia scoparia); [13]
  Plant response rating, Kochia: 50
Kochia (Kochia scoparia); [14]
  Plant response rating, Kochia: 85
[10]; [11]
  Plant response rating, Morningglory: 30
[10]; [12]
  Plant response rating, Morningglory: 60
[10]; [13]
  Plant response rating, Morningglory: 60
[10]; [14]
  Plant response rating, Morningglory: 90
Corn (Zea mays); [11]
  Plant response rating, Corn: 0
Corn (Zea mays); [12]
  Plant response rating, Corn: 30
Corn (Zea mays); [13]
  Plant response rating, Corn: 60

## CNN=Cc1nc(C2CC2)nc(N)c1Br [Compound 49]
[1]; Postemergence, 62 g ai/ha
  Cupgrass, Woolly plant response rating: 0
[1]; Postemergence, 125 g ai/ha
  Cupgrass, Woolly plant response rating: 15
[1]; [16]
  Plant response rating, Cupgrass, Woolly: 60
[1]; [17]
  Plant response rating, Cupgrass, Woolly: 65
[1]; [12]
  Plant response rating, Cupgrass, Woolly: 0
[1]; [13]
  Plant response rating, Cupgrass, Woolly: 0
[1]; [14]
  Plant response rating, Cupgrass, Woolly: 20
[1]; [18]
  Plant response rating, Cupgrass, Woolly: 25
[2]; Postemergence, 62 g ai/ha
  Surinam Grass plant response rating: 0
[2]; Postemergence, 125 g ai/ha
  Surinam Grass plant response rating: 0
[2]; [16]
  Plant response rating, Surinam Grass: 40
[2]; [17]
  Plant response rating, Surinam Grass: 45
[2]; [12]
  Plant response rating, Surinam Grass: 0
[2]; [13]
  Plant response rating, Surinam Grass: 15
[2]; [14]
  Plant response rating, Surinam Grass: 40
[2]; [18]
  Plant response rating, Surinam Grass: 65
[3]; Postemergence, 62 g ai/ha
  Ragweed plant response rating: 45
[3]; Postemergence, 125 g ai/ha
  Ragweed plant response rating: 65
[3]; [16]
  Plant response rating, Ragweed: 75
[3]; [17]
  Plant response rating, Ragweed: 90
[3]; [12]
  Plant response rating, Ragweed: 70
[3]; [13]
  Plant response rating, Ragweed: 100
[3]; [14]
  Plant response rating, Ragweed: 100
[3]; [18]
  Plant response rating, Ragweed: 100
[4]; [15]
  Plant response rating, Sunflower: 15
[4]; 125 g ai/ha, scale 0 to 100
  Plant response rating, Sunflower: 75
[4]; 250 g ai/ha, scale 0 to 100
  Plant response rating, Sunflower: 100
[4]; 500 g ai/ha, scale 0 to 100
  Plant response rating, Sunflower: 100
[5]; Postemergence, 62 g ai/ha
  Bermudagrass plant response rating: 0
[5]; Postemergence, 125 g ai/ha
  Bermudagrass plant response rating: 55
[5]; [16]
  Plant response rating, Bermudagrass: 55
[5]; [17]
  Plant response rating, Bermudagrass: 65
[5]; [12]
  Plant response rating, Bermudagrass: 0
[5]; [13]
  Plant response rating, Bermudagrass: 0
[5]; [14]
  Plant response rating, Bermudagrass: 85
[5]; [18]
  Plant response rating, Bermudagrass: 95
[6]; Postemergence, 62 g ai/ha
  Cocklebur plant response rating: 75
[6]; Postemergence, 125 g ai/ha
  Cocklebur plant response rating: 95
[6]; [16]
  Plant response rating, Cocklebur: 95
[6]; [17]
  Plant response rating, Cocklebur: 95
[6]; [12]
  Plant response rating, Cocklebur: 20
[6]; [13]
  Plant response rating, Cocklebur: 95
[6]; [14]
  Plant response rating, Cocklebur: 95
[6]; [18]
  Plant response rating, Cocklebur: 100
[7]; [15]
  Plant response rating, Nightshade: 95
[7]; 125 g ai/ha, scale 0 to 100
  Plant response rating, Nightshade: 100
[7]; 250 g ai/ha, scale 0 to 100
  Plant response rating, Nightshade: 100
[7]; 500 g ai/ha, scale 0 to 100
  Plant response rating, Nightshade: 100
[8]; Postemergence, 125 g ai/ha, scale 0 to 100 (0 no effect, 100 complete control)
  Johnsongrass plant response rating: 20
[8]; [16]
  Plant response rating, Johnsongrass: 35
[8]; [17]
  Plant response rating, Johnsongrass: 70
[8]; [12]
  Plant response rating, Johnsongrass: 45
[8]; [13]
  Plant response rating, Johnsongrass: 65
[8]; [14]
  Plant response rating, Johnsongrass: 80
[8]; [18]
  Plant response rating, Johnsongrass: 85
[9]; Postemergence, 62 g ai/ha
  Pigweed plant response rating: 65
[9]; Postemergence, 125 g ai/ha
  Pigweed plant response rating: 80
[9]; [16]
  Plant response rating, Pigweed: 95
[9]; [17]
  Plant response rating, Pigweed: 95
[9]; [12]
  Plant response rating, Pigweed: 85
[9]; [13]
  Plant response rating, Pigweed: 90
[9]; [14]
  Plant response rating, Pigweed: 100
[9]; [18]
  Plant response rating, Pigweed: 100
Kochia (Kochia scoparia); Postemergence, 62 g ai/ha
  Kochia plant response rating: 20
Kochia (Kochia scoparia); Postemergence, 125 g ai/ha
  Kochia plant response rating: 45
Kochia (Kochia scoparia); [16]
  Plant response rating, Kochia: 95
Kochia (Kochia scoparia); [17]
  Plant response rating, Kochia: 100
Kochia (Kochia scoparia); [12]
  Plant response rating, Kochia: 100
Kochia (Kochia scoparia); [13]
  Plant response rating, Kochia: 100
Kochia (Kochia scoparia); [14]
  Plant response rating, Kochia: 100
Kochia (Kochia scoparia); [18]
  Plant response rating, Kochia: 100
[10]; Postemergence, 62 g ai/ha
  Morningglory plant response rating: 50
[10]; Postemergence, 125 g ai/ha
  Morningglory plant response rating: 70
[10]; [16]
  Plant response rating, Morningglory: 80
[10]; [17]
  Plant response rating, Morningglory: 100
[10]; [12]
  Plant response rating, Morningglory: 90
[10]; [13]
  Plant response rating, Morningglory: 95
[10]; [14]
  Plant response rating, Morningglory: 100
[10]; [18]
  Plant response rating, Morningglory: 100
Corn (Zea mays); Postemergence, 62 g ai/ha
  Corn plant response rating: 0
Corn (Zea mays); Postemergence, 125 g ai/ha
  Corn plant response rating: 0
Corn (Zea mays); [16]
  Plant response rating, Corn: 20
Corn (Zea mays); [17]
  Plant response rating, Corn: 25
Corn (Zea mays); [13]
  Plant response rating, Corn: 15
Corn (Zea mays); [14]
  Plant response rating, Corn: 15
Corn (Zea mays); [18]
  Plant response rating, Corn: 65
